# Calls of active or inactive are those of the source. The rule behind the calls is not given here.
# Tests used:
# Staphylococcus aureus [1] = experiment: Antibacterial activity against Staphylococcus aureus by manual microdilution technique; type: functional
# Staphylococcus aureus [2] = experiment: Antibacterial activity against Staphylococcus aureus at 0.5 mg/liter by time kill assay; type: functional
# Staphylococcus aureus [3] = experiment: Antibacterial activity against Staphylococcus aureus by Etest; type: functional
# Staphylococcus aureus [4] = experiment: Antibacterial activity against Staphylococcus aureus infection-induced aortic valve endocarditis in rabbit assessed as number of survival days at 20 mg/kg, iv administered every 12 hrs for 5 days; type: functional, Aorta
# Staphylococcus aureus [5] = experiment: Antibacterial activity against Staphylococcus aureus infection-induced aortic valve endocarditis in rabbit assessed as cured animals in blood culture at 20 mg/kg, iv administered every 12 hrs for 5 days sacrificed 12 hrs after end of treatment; type: functional, organism-based; set-up: dose 20 mg/kg
# Staphylococcus aureus [6] = experiment: Antibacterial activity against Staphylococcus aureus infection-induced aortic valve endocarditis in rabbit assessed as reduction in bacterial burdens in blood culture at 20 mg/kg, iv administered every 12 hrs for 5 days sacrificed 12 hrs after end of treatment; type: functional
# Staphylococcus aureus [7] = experiment: Antibacterial activity against Staphylococcus aureus infection-induced aortic valve endocarditis in rabbit assessed as cured animals in blood culture at 20 mg/kg, iv administered every 12 hrs for 5 days sacrificed 12 days after last dose; type: functional, organism-based; set-up: dose 20 mg/kg
# Staphylococcus aureus [8] = experiment: Antibacterial activity against Staphylococcus aureus infection-induced aortic valve endocarditis in rabbit assessed as reduction in bacterial burdens in blood culture at 20 mg/kg, iv administered every 12 hrs for 5 days sacrificed 12 days after last dose; type: functional
# Staphylococcus aureus [9] = experiment: Antibacterial activity against Staphylococcus aureus infection-induced aortic valve endocarditis in rabbit assessed as reduction in bacterial burdens in heart valve tissue culture at 20 mg/kg, iv administered every 12 hrs for 5 days sacrificed 12 hrs after end of treatment; type: functional, Aorta
# Staphylococcus aureus [10] = experiment: Antibacterial activity against Staphylococcus aureus infection-induced aortic valve endocarditis in rabbit assessed as reduction in bacterial burdens in heart valve tissue culture at 20 mg/kg, iv administered every 12 hrs for 5 days sacrificed 12 days after last dose; type: functional, Aorta
# [11] = Concentration in Staphylococcus aureus infection-induced aortic valve endocarditis rabbit serum at 20 mg/kg, iv administered every 12 hrs measured 30 mins after third dose; type: ADME, organism-based, Oryctolagus cuniculus; set-up: dose 20 mg/kg, route intravenous; conditions: read-out: Drug uptake
# [12] = Concentration in Staphylococcus aureus infection-induced aortic valve endocarditis rabbit serum at 20 mg/kg, iv administered every 12 hrs measured 12 hrs after third dose; type: ADME, organism-based, Oryctolagus cuniculus; set-up: dose 20 mg/kg, route intravenous; conditions: read-out: Drug uptake
# [13] = AUC (0 to 12 hrs) in Staphylococcus aureus infection-induced aortic valve endocarditis rabbit at 20 mg/kg, iv administered every 12 hrs measured after third dose; type: ADME, organism-based, Oryctolagus cuniculus; set-up: time < 12 hr, dose 20 mg/kg, route intravenous; conditions: plasma
# [14] = AUC (0 to 12 hrs) in Staphylococcus aureus infection-induced aortic valve endocarditis rabbit at 20 mg/kg, iv administered every 12 hrs measured after seventh dose; type: ADME, organism-based, Oryctolagus cuniculus; set-up: time < 12 hr, dose 20 mg/kg, route intravenous; conditions: plasma
# [15] = Concentration in Staphylococcus aureus infection-induced aortic valve endocarditis rabbit serum at 20 mg/kg, iv administered every 12 hrs measured 30 mins after seventh dose in presence of Dexamethasone; type: ADME, organism-based, Oryctolagus cuniculus; set-up: dose 20 mg/kg, route intravenous; conditions: read-out: Drug uptake
# [16] = Concentration in Staphylococcus aureus infection-induced aortic valve endocarditis rabbit serum at 20 mg/kg, iv administered every 12 hrs measured 12hrs after seventh dose in presence of Dexamethasone; type: ADME, organism-based, Oryctolagus cuniculus; set-up: dose 20 mg/kg, route intravenous; conditions: read-out: Drug uptake
# [17] = AUC (0 to 12 hrs) in Staphylococcus aureus infection-induced aortic valve endocarditis rabbit at 20 mg/kg, iv administered every 12 hrs measured after seventh dose in presence of Dexamethasone; type: ADME, organism-based, Oryctolagus cuniculus; set-up: time < 12 hr, dose 20 mg/kg, route intravenous; conditions: plasma
# Staphylococcus aureus [18] = experiment: Cardiovascular activity in Staphylococcus aureus infection-induced aortic valve endocarditis rabbit assessed as increase in fractional shortening at 20 mg/kg, iv administered every 12 hrs for 5 days […]; type: functional, organism-based; set-up: dose 20 mg/kg
# Oryctolagus cuniculus [19] = experiment: Toxicity in Staphylococcus aureus infection-induced aortic valve endocarditis rabbit assessed as tissue valve damage median score at 20 mg/kg, iv administered every 12 hrs for 5 days sacrificed 12 days after last dose by histopathology; type: organism-based; set-up: dose 20 mg/kg, route intravenous; conditions: in vivo
# Oryctolagus cuniculus [20] = experiment: Toxicity in Staphylococcus aureus infection-induced aortic valve endocarditis rabbit assessed as inflammatory cell infiltration median score at 20 mg/kg, iv administered every 12 hrs for 5 days sacrificed 12 days after last dose by histopathology; type: organism-based; set-up: dose 20 mg/kg, route intravenous; conditions: in vivo, 288 h
# Oryctolagus cuniculus [21] = experiment: Toxicity in Staphylococcus aureus infection-induced aortic valve endocarditis rabbit assessed as collagenization median score at 20 mg/kg, iv administered every 12 hrs for 5 days sacrificed 12 days after last dose by histopathology; type: organism-based; set-up: dose 20 mg/kg, route intravenous; conditions: in vivo, 288 h
# Oryctolagus cuniculus [22] = experiment: Toxicity in Staphylococcus aureus infection-induced aortic valve endocarditis rabbit assessed as fibrous content median score at 20 mg/kg, iv administered every 12 hrs for 5 days sacrificed 12 days after last dose by histopathology; type: organism-based; set-up: dose 20 mg/kg, route intravenous; conditions: in vivo, 288 h
# Oryctolagus cuniculus [23] = experiment: Toxicity in Staphylococcus aureus infection-induced aortic valve endocarditis rabbit assessed as calcification median score at 20 mg/kg, iv administered every 12 hrs for 5 days sacrificed 12 days after last dose by histopathology; type: organism-based; set-up: dose 20 mg/kg, route intravenous; conditions: in vivo, 288 h
# [24] = Drug level in Staphylococcus aureus infection-induced aortic valve endocarditis rabbit serum at 20 mg/kg, iv administered every 12 hrs measured 30 mins after seventh dose; type: ADME, organism-based, Oryctolagus cuniculus; set-up: dose 20 mg/kg, route intravenous; conditions: read-out: Drug uptake
# [25] = Drug level in Staphylococcus aureus infection-induced aortic valve endocarditis rabbit serum at 20 mg/kg, iv administered every 12 hrs measured 12 hrs after seventh dose; type: ADME, organism-based, Oryctolagus cuniculus; set-up: dose 20 mg/kg, route intravenous; conditions: read-out: Drug uptake
smiles,measurement,setting,value
COc1c(N2C[C@@H]3CCCN[C@@H]3C2)c(F)cc2c(=O)c(C(=O)O)cn(C3CC3)c12 [MOXIFLOXACIN],MBC,Staphylococcus aureus [1],0.125 µg/mL
same,MIC,Staphylococcus aureus [1],0.125 µg/mL
same,log10CFU/ml,Staphylococcus aureus [2],>3
same,MIC,Staphylococcus aureus [3],0.064 µg/mL
same,Survival,Staphylococcus aureus [4],15.3 days
same,Activity,Staphylococcus aureus [5],Active
same,log10CFU/ml,Staphylococcus aureus [6],2.83
same,Activity,Staphylococcus aureus [7],Active
same,log10CFU/ml,Staphylococcus aureus [8],2.76 log10 CFU/ml
same,log10CFU/g,Staphylococcus aureus [9],2.1
same,log10CFU/g,Staphylococcus aureus [10],2.2
same,concentration at 0.5 h,[11],3730 ng/mL
same,concentration at 12 h,[12],230 ng/mL
same,AUC at 12 h,[13],16500 ng·h/mL
same,AUC at 12 h,[14],22200 ng·h/mL
same,concentration at 0.5 h,[15],3330 ng/mL
same,concentration at 12 h,[16],1000 ng/mL
same,AUC at 12 h,[17],23900 ng·h/mL
same,Activity,Staphylococcus aureus [18],Active
same,Activity,Oryctolagus cuniculus [19],2.3
same,Activity,Oryctolagus cuniculus [20],1.2
same,Activity,Oryctolagus cuniculus [21],2
same,Activity,Oryctolagus cuniculus [22],1.6
same,Activity,Oryctolagus cuniculus [23],1.6
same,concentration at 0.5 h,[24],4390 ng/mL
same,concentration at 12 h,[25],510 ng/mL
CC1(C)S[C@@H]2[C@H](NC(=O)[C@H](N)c3ccc(O)cc3)C(=O)N2[C@H]1C(=O)O [AMOXICILLIN],MBC,Staphylococcus aureus [1],4 µg/mL
same,MIC,Staphylococcus aureus [1],2 µg/mL
Cc1onc(-c2ccccc2)c1C(=O)N[C@@H]1C(=O)N2[C@@H]1SC(C)(C)[C@@H]2C(=O)O [OXACILLIN],MBC,Staphylococcus aureus [1],0.5 µg/mL
same,MIC,Staphylococcus aureus [1],≤ 0.25 µg/mL

# — ChEMBL document CHEMBL1155768, “Dexamethasone as adjuvant therapy to moxifloxacin attenuates valve destruction in experimental aortic valve endocarditis due to Staphylococcus aureus” (Antimicrob Agents Chemother, 2007)
